Measured values taken from patent publication USRE46511E1, “Fused pyrimidine derivatives for inhibition of tyrosine kinase activity” (HANMI SCIENCE CO., LTD., priority 2010, dated 2017).

Experiments:
[1] = tested on: NCI-H1975 cancer cells; experiment: Anticancer efficacy test in nude mice xenografted with NCI-H1975 cancer cells; format: in vivo; settings: oral, one time a day for 10 days, measured on 16th day after administration
Procedure: NCI-H1975 cell (lung cancer cell) was purchased from American Type Culture Collection (ATCC). After formation of tumor by subcutaneous injection with 1×10^8 cells/0.3 mL of tumor cell suspension on the back of mice, passages were carried out and tumor in at least third generation was used in the test.
(§1) In the test, a tumor in the sixth generation isolated from an individual was cut into a size of 30 mg, and transplanted subcutaneously into right flanks of mice using a 12-gauge trocar. The volume of tumor (V) is calculated from following equation 1 after measuring a long diameter (L) and a short diameter (S) using a vernier caliper twice a week for 18 days of test. All test materials were orally administered one time a day for total 10 days, and the tumor growth inhibition rate (IR: tumor growth inhibition rate (%) calculated based on a vehicle-treated control) and the maximum body weight loss (mBWL: maximum body weight loss calculated based on the body weight just before administration) were calculated using following equations 2 and 3. V=L×S^2/2 <Equation 1>
wherein, L is a long diameter and S is a short diameter. IR(%)=(1−(RTG of the treatment group of test material)/(RTG of the control group))×100 <Equation 2>

[2] = Body weight change in nude mice xenografted with NCI-H1975 cancer cells; format: in vivo; settings: for mBWL (maximum body weight loss): oral, one time a day for 10 days, measured on 10th day after administration
Procedure: as §1, with “. In” for “In”
wherein, RTG is a relative tumor growth, which is the mean tumor volume on a particular day based on […] mean tumor volume. mBWL(%)=(1−(mean body weight on day x/mean body weight just before administration))×100 <Equation 3>
wherein, day x is a day on which the body weight loss is largest during the test.

[3] = tested on: HCC827 (EGFR DelE746_A750); experiment: Inhibition test for growth of cancer cell expressing EGFR (SRB), HCC827; format: cell-based; settings: Homo sapiens, HCC827, 72 h, HCC827 cells, 72 hours, SRB; read-out: GI50 HCC827 EGFR DelE746_A750;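 also: cells in 96-well plates exposed to tenfold serial dilutions from 100 µM, fixed with trichloroacetic acid, SRB-stained, absorbance read at 540 nm, DMSO under 1%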
[4] = tested on: NCI-H1975 (EGFR L858R/T790M); experiment: Inhibition test for growth of cancer cell expressing EGFR (MTS), NCI-H1975; format: cell-based; settings: Homo sapiens; NCI-H1975 cells, 48 hours, MTS; read-out: GI50 NCI-H1975 EGFR L858R/T790M
[5] = tested on: A431 (EGFR WT); experiment: Inhibition test for growth of cancer cell expressing EGFR (SRB), A431; format: cell-based; settings: Homo sapiens, A-431; A431 cells, 72 hours, SRB; read-out: GI50 A431 EGFR WT;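 also: cells in 96-well plates exposed to tenfold serial dilutions from 100 µM down to 10^−6 µM, DMSO under 1%, SRB staining read as absorbance at 540 nm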
Procedure: A431 cell line was incubated in a high-glucose DMEM (Dulbecco's Modified Eagle's Medium) supplemented with 10% fetal bovine serum (FBS) and 1% penicillin/streptomycin (Gibco BRL), and HCC827 and NCI-H1975 cell lines were incubated in an RPMI medium supplemented with 10% FBS, 1% penicillin/streptomycin and 1% sodium pyruvate.
The cancer cell lines stored in a liquid nitrogen tank were each quickly thawed at 37° C., and centrifuged to remove the medium. The resulting cell pellet was mixed with a culture medium, incubated in a culture flask at 37° C. under 5% CO2 for 2 to 3 days, and the medium was removed. The remaining cells were washed with DPBS (Dulbecco's Phosphate Buffered Saline) and separated from the flask by using Tripsin-EDTA. […] 100 μl of the diluted cell solution was added to each well of a 96-well plate, and incubated at 37° C. under 5% CO2 for 1 day.
In case that the test compound was not soluble in DMSO, 1% HCl was added thereto and treated in a 40° C. water bath for 30 mins until a complete dissolution was attained. The DMSO solution containing test compound was diluted with a culture medium to a final concentration of 100 μM, and then diluted 10 times serially to 10^−6 μM (a final concentration of DMSO was less than 1%).
The medium was removed from each well of the 96-well plate. And then, 100 μl of a test compound solution was added to each well holding the cultured cells, and the plate was incubated at 37° C. under 5% CO2 for 72 hours (except that NCI-H1975 cells were incubated for 48 hours). After removing the medium from the plate, 50 μA of 10% trichloroacetic acid was added to each well, and the plate was kept at 4° C. for 1 hour to fix the cells to the bottom of the plate. The added 10% trichloroacetic acid solution was removed from each well, the plate was dried, 100 μA of an SRB (Sulforhodamine-B) dye solution at a concentration of 0.4% dissolved in 1% acetic acid was added thereto, and the resulting mixture was reacted for 10 mins at room temperature. After removing the dye solution, the plate was washed with water, and well dried. When the dye solution was not effectively removed by water, 1% acetic acid was used. 150 μA of 10 mM trisma base was added to each well, and the absorbance at 540 nm wavelength was determined with a microplate reader.

[6] = target: T1, EGFR WT (Homo sapiens, UniProt P00533); experiment: z-lyte kinase assay, EGFR WT; format: biochemical
T1 construct: purchased Invitrogen

[7] = target: T2, EGFR L858R/T790M (Homo sapiens, UniProt P00533, L858R/T790M); experiment: z-lyte kinase assay, EGFR L858R/T790M; format: biochemical
T2 construct: purchased Invitrogen

[8] = target: T3, BTK (Homo sapiens, UniProt Q06187); experiment: z-lyte kinase assay, BTK; format: biochemical
T3 construct: purchased Invitrogen
Procedure: (§2) The inhibiting activities of the inventive compounds obtained in Examples 1 to 237 against EGFR WT and EGFR L858R/T790M kinase were determined using z-lyte kinase assay kit (Invitrogen, PV3191). The kinases used in the test were purchased from Invitrogen.
(§3) The compounds obtained in Examples 1 to 237 were each prepared to 10 mM DMSO solution, and a solution containing 4% DMSO were prepared therefrom and diluted to a concentration of 1 μM to 0.0001 μM. […] The test was conducted in a 384 well polystyrene flat-bottomed plates. 5 μl of the diluted solution of each compound was added to each well, and 10 μl of a mixture of peptide substrate and kinase in a suitable concentration and 5 μl of 5˜300 μM ATP solution were successively added thereto and the plate was incubated in a stirrer at room temperature for 60 minutes. After 60 mins, 10 μl of coloring reagent was added to the resulting mixture to initiate a fluorescence reaction of peptide substrate and a terminating solution was added thereto for terminating the reaction. A fluorescence value of each well was determined with a fluorescence meter (Molecular Device) at 400 nm (excitation filter) and 520 nm (emission filter). […] The calculation of IC50 and the result analysis were carried out by using Microsoft Excel.
(§4) The inhibiting activities of the inventive compounds obtained in Examples 1 to 237 against BTK and JAK3 kinases were determined, respectively. The procedure of Test Example 2 was repeated except that BTK and JAK3 kinases (Invitrogen) were employed instead of using the EGFR kinase.

[9] = target: T4, JAK3 (Homo sapiens, UniProt P52333); experiment: z-lyte kinase assay, JAK3; format: biochemical
T4 construct: purchased Invitrogen
T4 sequence (P52333 1-1124): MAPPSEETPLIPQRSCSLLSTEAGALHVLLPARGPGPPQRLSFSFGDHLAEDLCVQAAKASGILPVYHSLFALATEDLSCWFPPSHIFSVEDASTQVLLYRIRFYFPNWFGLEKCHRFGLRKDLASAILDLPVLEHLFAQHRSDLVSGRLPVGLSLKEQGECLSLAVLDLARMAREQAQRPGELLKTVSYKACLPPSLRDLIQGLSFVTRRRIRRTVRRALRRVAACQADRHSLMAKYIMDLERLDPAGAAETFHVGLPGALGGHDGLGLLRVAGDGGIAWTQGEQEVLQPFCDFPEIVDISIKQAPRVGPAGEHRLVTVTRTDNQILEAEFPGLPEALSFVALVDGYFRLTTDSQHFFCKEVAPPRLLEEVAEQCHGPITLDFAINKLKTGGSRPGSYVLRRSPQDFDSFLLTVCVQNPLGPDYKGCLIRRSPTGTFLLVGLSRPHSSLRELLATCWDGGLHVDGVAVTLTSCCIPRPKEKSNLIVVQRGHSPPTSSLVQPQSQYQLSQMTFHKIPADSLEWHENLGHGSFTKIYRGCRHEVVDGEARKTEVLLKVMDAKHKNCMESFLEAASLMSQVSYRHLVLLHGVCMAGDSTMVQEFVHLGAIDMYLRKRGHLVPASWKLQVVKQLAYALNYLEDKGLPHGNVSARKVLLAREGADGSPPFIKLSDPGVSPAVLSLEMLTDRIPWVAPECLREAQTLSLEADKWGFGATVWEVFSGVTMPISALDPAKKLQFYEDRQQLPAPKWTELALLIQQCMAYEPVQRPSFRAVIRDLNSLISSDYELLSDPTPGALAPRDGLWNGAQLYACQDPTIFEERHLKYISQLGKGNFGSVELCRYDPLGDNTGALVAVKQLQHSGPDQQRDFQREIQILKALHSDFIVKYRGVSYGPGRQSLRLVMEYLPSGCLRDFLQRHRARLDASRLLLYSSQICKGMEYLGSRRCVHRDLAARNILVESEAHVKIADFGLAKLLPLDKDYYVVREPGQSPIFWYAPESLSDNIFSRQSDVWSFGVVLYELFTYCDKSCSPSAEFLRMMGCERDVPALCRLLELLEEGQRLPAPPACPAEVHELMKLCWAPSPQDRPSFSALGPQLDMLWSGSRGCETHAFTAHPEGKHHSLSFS
Procedure: as §2, §3, §4

T2 sequence (P00533 25-1210 T790M/L858R): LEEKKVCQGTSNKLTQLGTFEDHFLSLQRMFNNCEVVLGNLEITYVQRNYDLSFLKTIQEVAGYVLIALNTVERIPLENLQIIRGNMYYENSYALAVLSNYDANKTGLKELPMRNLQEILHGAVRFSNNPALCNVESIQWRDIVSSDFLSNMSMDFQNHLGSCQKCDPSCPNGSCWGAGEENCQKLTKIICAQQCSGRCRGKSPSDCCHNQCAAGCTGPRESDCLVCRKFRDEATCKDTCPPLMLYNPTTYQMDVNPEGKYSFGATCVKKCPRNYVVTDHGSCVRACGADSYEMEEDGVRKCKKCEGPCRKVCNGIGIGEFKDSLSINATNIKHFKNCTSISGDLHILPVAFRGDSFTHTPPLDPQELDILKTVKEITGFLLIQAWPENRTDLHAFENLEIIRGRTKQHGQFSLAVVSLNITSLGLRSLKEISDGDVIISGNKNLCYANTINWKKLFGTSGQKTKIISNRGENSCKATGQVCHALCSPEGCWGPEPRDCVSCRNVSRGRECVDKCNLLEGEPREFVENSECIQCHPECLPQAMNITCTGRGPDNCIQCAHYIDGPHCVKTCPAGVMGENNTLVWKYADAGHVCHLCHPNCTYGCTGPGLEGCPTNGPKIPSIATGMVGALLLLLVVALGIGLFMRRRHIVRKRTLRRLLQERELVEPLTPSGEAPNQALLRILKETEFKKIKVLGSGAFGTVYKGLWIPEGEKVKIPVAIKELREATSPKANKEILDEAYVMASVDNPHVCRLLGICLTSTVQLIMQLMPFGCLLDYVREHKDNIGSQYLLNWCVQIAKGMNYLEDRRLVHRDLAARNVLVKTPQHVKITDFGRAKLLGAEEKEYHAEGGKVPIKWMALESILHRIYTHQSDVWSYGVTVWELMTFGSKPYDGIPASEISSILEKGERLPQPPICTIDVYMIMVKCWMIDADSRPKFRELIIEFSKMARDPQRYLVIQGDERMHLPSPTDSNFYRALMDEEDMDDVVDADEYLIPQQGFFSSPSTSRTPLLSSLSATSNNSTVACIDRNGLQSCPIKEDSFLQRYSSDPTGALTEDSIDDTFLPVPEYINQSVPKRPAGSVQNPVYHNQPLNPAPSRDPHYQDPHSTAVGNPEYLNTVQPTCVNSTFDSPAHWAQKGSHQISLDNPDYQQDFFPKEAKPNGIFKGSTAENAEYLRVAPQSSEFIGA
T1 sequence (P00533 25-1210): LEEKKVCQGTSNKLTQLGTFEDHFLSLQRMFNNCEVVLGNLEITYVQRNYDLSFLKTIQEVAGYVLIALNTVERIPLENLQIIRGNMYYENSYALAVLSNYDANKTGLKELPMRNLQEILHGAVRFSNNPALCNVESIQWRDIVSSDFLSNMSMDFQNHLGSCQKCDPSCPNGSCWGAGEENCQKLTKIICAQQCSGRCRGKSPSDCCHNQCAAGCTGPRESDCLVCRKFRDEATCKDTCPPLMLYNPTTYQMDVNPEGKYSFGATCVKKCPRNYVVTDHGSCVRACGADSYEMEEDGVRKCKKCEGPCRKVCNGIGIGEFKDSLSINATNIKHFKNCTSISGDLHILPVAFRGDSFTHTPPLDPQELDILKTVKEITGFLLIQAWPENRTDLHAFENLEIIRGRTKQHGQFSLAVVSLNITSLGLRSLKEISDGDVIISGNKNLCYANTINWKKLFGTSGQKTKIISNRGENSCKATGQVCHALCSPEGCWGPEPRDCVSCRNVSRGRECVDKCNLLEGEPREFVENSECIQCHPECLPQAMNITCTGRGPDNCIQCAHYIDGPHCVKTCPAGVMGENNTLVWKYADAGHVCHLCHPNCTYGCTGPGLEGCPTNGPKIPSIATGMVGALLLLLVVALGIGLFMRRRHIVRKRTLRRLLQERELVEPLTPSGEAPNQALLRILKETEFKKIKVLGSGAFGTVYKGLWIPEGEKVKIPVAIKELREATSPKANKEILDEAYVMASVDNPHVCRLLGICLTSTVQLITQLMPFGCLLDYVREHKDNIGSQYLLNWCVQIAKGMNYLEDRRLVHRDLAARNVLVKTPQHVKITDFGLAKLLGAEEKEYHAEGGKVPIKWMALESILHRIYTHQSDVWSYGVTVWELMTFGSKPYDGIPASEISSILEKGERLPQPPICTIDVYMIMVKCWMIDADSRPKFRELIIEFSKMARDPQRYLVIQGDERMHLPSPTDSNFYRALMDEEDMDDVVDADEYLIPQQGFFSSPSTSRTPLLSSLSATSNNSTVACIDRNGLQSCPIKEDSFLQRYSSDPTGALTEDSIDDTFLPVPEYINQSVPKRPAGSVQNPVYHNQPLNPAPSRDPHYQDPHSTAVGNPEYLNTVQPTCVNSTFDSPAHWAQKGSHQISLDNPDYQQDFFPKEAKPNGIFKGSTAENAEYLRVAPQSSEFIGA
T3 sequence (Q06187 whole entry): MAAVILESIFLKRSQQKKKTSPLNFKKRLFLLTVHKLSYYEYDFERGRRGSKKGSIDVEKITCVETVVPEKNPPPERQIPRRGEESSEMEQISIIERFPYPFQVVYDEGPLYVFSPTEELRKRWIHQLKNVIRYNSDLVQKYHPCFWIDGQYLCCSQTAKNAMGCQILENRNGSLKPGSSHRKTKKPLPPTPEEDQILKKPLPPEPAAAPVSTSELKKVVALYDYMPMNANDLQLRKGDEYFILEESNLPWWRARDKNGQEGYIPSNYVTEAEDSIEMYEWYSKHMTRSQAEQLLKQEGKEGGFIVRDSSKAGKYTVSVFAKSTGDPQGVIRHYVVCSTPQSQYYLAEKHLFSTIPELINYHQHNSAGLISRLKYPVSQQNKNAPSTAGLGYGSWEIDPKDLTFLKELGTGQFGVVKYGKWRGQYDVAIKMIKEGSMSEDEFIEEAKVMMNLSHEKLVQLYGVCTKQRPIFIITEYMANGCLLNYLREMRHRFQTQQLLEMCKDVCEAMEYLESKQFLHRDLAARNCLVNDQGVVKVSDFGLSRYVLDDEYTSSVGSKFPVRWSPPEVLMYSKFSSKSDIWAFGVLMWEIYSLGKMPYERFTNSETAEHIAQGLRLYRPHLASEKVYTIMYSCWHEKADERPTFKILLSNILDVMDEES

| SMILES | GI50 [3] | GI50 [4] | GI50 [5] | IC50 [6] | IC50 [7] | IC50 [8] | IC50 [9] | IR (tumor growth inhibition rate) ([1]; 50 mg/kg) | mBWL (maximum body weight loss) ([2]; 50 mg/kg) | IR (tumor growth inhibition rate) ([1]; 70 mg/kg) | mBWL (maximum body weight loss) ([2]; 70 mg/kg) | weight gain ([2]; in therapeutically equivalent dose (70 mg/kg), NCI-H1975 xenografted nude mice) |
| --- | --- | --- | --- | --- | --- | --- | --- | --- | --- | --- | --- | --- |
| CN(C)C/C=C/C(=O)Nc1cc2c(Nc3ccc(F)c(Cl)c3)ncnc2cc1O[C@H]1CCOC1 [BIBW2992, Afatinib, reference compound] |  |  |  |  |  |  |  | 77% | 9.1% |  |  |  |
| C=CC(=O)Nc1cccc(Oc2nc(Nc3ccc(N4CCN(C)CC4)cc3OC)nc3ccsc23)c1 [Example 2] | 50 to 100 nM | 50 to 100 nM | > 1000 nM | > 1000 nM | < 50 nM |  |  |  |  | 75% | −7.6% | 7.6% |
| C=CC(=O)Nc1cccc(Nc2nc(Nc3ccc(N4CCN(C)CC4)c(F)c3)nc3ccsc23)c1 [Example 215] | < 50 nM | < 50 nM |  | > 1000 nM | < 50 nM |  |  |  |  |  |  |  |
| C=CC(=O)Nc1cccc(Oc2nc(Nc3ccc(N4CCN(C)CC4)cc3)nc3ccoc23)c1 [Example 228, N-(3-((2-((4-(4-methylpiperazin-1-yl)phenyl)amino)furo[3,2-d]pyrimidin-4-yl)oxy)phenyl)acrylamide] | < 50 nM | < 50 nM | 100 to 1000 nM |  |  | ≤ 50 nM | ≤ 50 nM |  |  |  |  |  |
| C=CC(=O)Nc1cccc(Oc2nc(Nc3ccc(N4CCN(C(C)C)CC4)cc3)nc3ccoc23)c1 [Example 229] | < 50 nM | < 50 nM | 100 to 1000 nM |  |  | ≤ 50 nM | ≤ 50 nM |  |  |  |  |  |
| C=CC(=O)Nc1cccc(Oc2nc(Nc3ccc(NC4CCN(C)CC4)c(F)c3)nc3ccoc23)c1 [Example 237] | < 50 nM | < 50 nM | > 1000 nM |  |  | ≤ 50 nM | ≤ 50 nM |  |  |  |  |  |

The next lines start with results.

| GI50 [3] | GI50 [4] | GI50 [5] | IC50 [6] | IC50 [7] | IC50 [8] | IC50 [9] | SMILES | IR (tumor growth inhibition rate) ([1]; 50 mg/kg) | mBWL (maximum body weight loss) ([2]; 50 mg/kg) | IR (tumor growth inhibition rate) ([1]; 70 mg/kg) | mBWL (maximum body weight loss) ([2]; 70 mg/kg) | weight gain ([2]; in therapeutically equivalent dose (70 mg/kg), NCI-H1975 xenografted nude mice) |
| --- | --- | --- | --- | --- | --- | --- | --- | --- | --- | --- | --- | --- |
| < 50 nM | < 50 nM | > 1000 nM | 100 to 1000 nM | < 50 nM | ≤ 50 nM | ≤ 50 nM | C=CC(=O)Nc1cccc(Oc2nc(Nc3ccc(N4CCC(N5CCCCC5)CC4)cc3)nc3ccsc23)c1 [Example 48] |  |  |  |  |  |
| < 50 nM | < 50 nM |  | > 1000 nM | < 50 nM |  |  | C=CC(=O)Nc1cccc(Oc2nc(Nc3ccc(C4CCCN(C)C4)cc3OC)nc3ccsc23)c1 (centres unmarked) [Example 115] |  |  |  |  |  |
| < 50 nM | < 50 nM | > 1000 nM | > 1000 nM | < 50 nM |  |  | C=CC(=O)Nc1cccc(Oc2nc(Nc3ccc(N4CCOCC4)c(F)c3)nc3ccsc23)c1 [Example 122] |  |  |  |  |  |
| < 50 nM | < 50 nM | > 1000 nM | 100 to 1000 nM | < 50 nM |  |  | C=CC(=O)Nc1cccc(Nc2nc(Nc3ccc(N4CCN(C)CC4)cc3)nc3ccsc23)c1 [Example 206, N-(3-(2-(4-(4-methylpiperazin-1-yl)phenylamino)thieno[3,2-d]pyrimidin-4-ylamino)phenyl)acrylamide] |  |  |  |  |  |
